Assay results published in publication PMC11530130, “Peripherally restricted PICK1 inhibitor mPD5 ameliorates pain behaviors in murine inflammatory and neuropathic pain models” (JCI Insight, 2024).
Where “and” joins values, the source holds several entries; their conditions need not be identical. Equal entries are not always repeated.

Columns and labels:
[1] = system: mice, spared nerve injury (SNI) model; assay: SNI model, von Frey, single s.c. dose, female mice; format: in vivo, mouse; conditions: s.c. 2, 10, 50 μmol/kg (all tested doses), 1 hour after injection
Protocol: (§1) solution (0.05 mg/kg) injected s.c. 30 min before surgery (10 μL/g). For surgery, mice were anaesthetised with ketamine (100 mg/kg, i.p.) and xylazine (10 mg/kg, i.p.) (volume 10 µL/g) with 100 μL of 1% xylocaine solution infiltrated at the site of the incision. The distal trifurcation of the sciatic nerve was identified, and the tibial and common peroneal branches were ligated with polypropylene nonabsorbable 6-0 sutures (Ethicon) and 1 mm was cut out, leaving the sural branch intact. The wound was closed with sutures, and the animals were allowed to recover and returned to their cages. […]
(§2) Wounds were closed with surgical glue or medical clips and animals were monitored daily for signs of stress or discomfort, but in all cases recovered uneventfully. […]
Unless otherwise specified, von Frey occurred as described in the following. […] Mechanical paw withdrawal threshold (PWT) was determined by von Frey measurements of both hind paws. […]
Mice were placed in PVC plastic boxes (11.5 cm x 14 cm) on a wire mesh and allowed minimum 20 min habituation prior of experiment initiation. Each von Frey hair was applied five times with adequate resting periods between each application and number of withdrawals recorded. The withdrawal threshold was determined as the von Frey filament eliciting at least three positive trials out of the five applications in two consecutive filaments. […]

[2] = system: PICK1-WT and PICK1-KO mice, SNI model; assay: SNI model, von Frey, PICK1-WT and PICK1-KO mice; format: in vivo, mouse; conditions: for effect on mechanical hypersensitivity (PWT): s.c.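 On von Frey paw withdrawal threshold, individual animals (Fig 5F): time points given in hours with 0 hours as the comparison point.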
Protocol: as §1, with “cages. Two subcutaneous injections of buprenorphine (0.05 mg/kg) were performed with an 8 to 12 hours delay decreasing pain due to the surgery” for “cages.”
The remaining SNI pain experiments were performed in-house using the following procedure.
SNI surgery was performed on the left hindleg of C57BL/6J male and female mice (Janvier, France) under 2% isoflurane anaesthesia. Skin on the lateral surface was incised between hip and knee followed by lengthwise division of the biceps femoris muscle leading to exposure of the three branches of the sciatic nerve. Sural branch was left intact, while the peroneal and tibial branches were ligated with a single surgical knot and axotomized distally of the ligation.
as §2
The skin wound was closed with two medical clips (Michel Suture Clips, 7.5x1.75 mm, Angthos, 12040-01). Post-surgical analgesia included s.c. injection of 5 mg/kg carprofen (Carprosan vet, 50 mg/mL mixed 1:25 in sterile ddH2O, Dechra, Le Vet Beheer B.V., Netherlands, Batch: 050520) right after surgery and the […]
following day. […]
The test battery of the CIBP model was carried out 45 or 90 min after morphine and mPD5 administration respectively to accommodate the peak efficacy […]
Mechanically evoked pain (von Frey test).
Unless otherwise specified, von Frey occurred as described in the following. Animals were habituated to the experimental room for a minimum of 60 min before initiation of the experiment. Mechanical paw withdrawal threshold (PWT) was determined by von Frey measurements of both hind paws. Von Frey filaments ranging from 0.04 to 2 g (g = gram- […]
Filaments in ascending order were applied to the frontocentral plantar surface of the hind paws.
Mice were placed in PVC plastic boxes (11.5 cm x 14 cm) on a wire mesh and allowed minimum 20 min habituation prior of experiment initiation. Each von Frey hair was applied five times with adequate resting periods between each application and number of withdrawals recorded. The withdrawal threshold was determined as the von Frey filament eliciting at least three positive trials out of the five applications in two consecutive filaments. A positive trial was defined as sudden paw withdrawal, flinching and/or paw licking induced by the filament.
For the CIBP model, two habituation sessions were performed on separated days with mice placed in the von Frey equipment for 1-1.5 hours in the presence of the experimenter on day one and random von Frey pocking with the 0.6 g filament on day two. Von Frey monofilaments (North Coast Touch Test, North Coast Medical, Inc.) with target forces of 0.04g, 0.07g, 0.16g, […]
down method” (PWT=10Xf+kδ) starting with the 0.6 g filament. Positive response was defined as; withdrawal, shaking or grooming of paw following a 2-3 second stimulation. In case, of unclear response, stimulus was repeated after 10-15 seconds.
For the STZ model, the mechanical threshold response of the injected mice was measured with […]
injection of test compounds on day 14, mechanical threshold was measured at 1 hour, 2 hours, 4 hours and 6 hours and again on day 15. […]
Thermally evoked pain (Hargreaves test).
A baseline Hargreaves test was performed on day 0 before inflammatory pain was induced as described in section 2.13. In the Hargreaves test, the mouse was placed in a container on a glass […]

CCCCCCCCCCCCCC(=O)N(CCOCCOCCC(=O)N[C@@H](Cc1c[nH]cn1)C(=O)N[C@@H](Cc1c[nH]c2ccccc12)C(=O)N[C@@H](CC(C)C)C(=O)N[C@@H](CCCCN)C(=O)N[C@H](C(=O)O)C(C)C)CCOCCOCCC(=O)N[C@@H](Cc1c[nH]cn1)C(=O)N[C@@H](Cc1c[nH]c2ccccc12)C(=O)N[C@@H](CC(C)C)C(=O)N[C@@H](CCCCN)C(=O)N[C@H](C(=O)O)C(C)C [mPD5, myristoyl-NPEG4-(HWLKV)2]
effect on mechanical hypersensitivity (PWT) [1]: significantly reduced mechanical hypersensitivity | effect on mechanical hypersensitivity (PWT) ([2]; PICK1-KO mice following SNI surgery): no effect on mechanical hypersensitivity | von Frey paw withdrawal threshold, individual animals (Fig 5F) ([2]; PICK1-KO, CONTRA, BL): 1.4 (4×) and 2 (2×) | von Frey paw withdrawal threshold, individual animals (Fig 5F) ([2]; PICK1-KO, CONTRA, time 0): 1 (3×) and 1.4 (3×) | von Frey paw withdrawal threshold, individual animals (Fig 5F) ([2]; PICK1-KO, CONTRA, time 1): 1.4 (3×) and 0.6 and 2 and 1 | von Frey paw withdrawal threshold, individual animals (Fig 5F) ([2]; PICK1-KO, CONTRA, time 5): 1 and 1.4 (3×) and 2 (2×) | von Frey paw withdrawal threshold, individual animals (Fig 5F) ([2]; PICK1-KO, injured side, BL): 1.4 (4×) and 2 and 1 | von Frey paw withdrawal threshold, individual animals (Fig 5F) ([2]; PICK1-KO, injured side, time 0): 0.6 and 0.07 and 0.4 (2×) and 0.16 (2×) | von Frey paw withdrawal threshold, individual animals (Fig 5F) ([2]; PICK1-KO, injured side, time 1): 0.4 (2×) and 0.16 (3×) and 0.07 | von Frey paw withdrawal threshold, individual animals (Fig 5F) ([2]; PICK1-KO, injured side, time 5): 0.16 (2×) and 0.07 (3×) and 0.4 | von Frey paw withdrawal threshold, individual animals (Fig 5F) ([2]; PICK1-WT, CONTRA, BL): 1 (2×) and 1.4 (4×) | von Frey paw withdrawal threshold, individual animals (Fig 5F) ([2]; PICK1-WT, CONTRA, time 0): 1.4 (4×) and 1 and 2 | von Frey paw withdrawal threshold, individual animals (Fig 5F) ([2]; PICK1-WT, CONTRA, time 1): 1.4 (3×) and 1 (2×) and 2 | von Frey paw withdrawal threshold, individual animals (Fig 5F) ([2]; PICK1-WT, CONTRA, time 5): 1.4 | von Frey paw withdrawal threshold, individual animals (Fig 5F) ([2]; PICK1-WT, injured side, BL): 1 (2×) and 1.4 (3×) and 2 | von Frey paw withdrawal threshold, individual animals (Fig 5F) ([2]; PICK1-WT, injured side, time 0): 0.07 (2×) and 0.16 (3×) and 0.4 | von Frey paw withdrawal threshold, individual animals (Fig 5F) ([2]; PICK1-WT, injured side, time 1): 1.4 (4×) and 1 (2×) | von Frey paw withdrawal threshold, individual animals (Fig 5F) ([2]; PICK1-WT, injured side, time 5): 0.6 (2×) and 0.4 (3×) and 1 | effect on mechanical hypersensitivity (PWT) ([2]; WT littermates following SNI surgery): significantly reduced
